# Measurements as given in patent publication US4020076A, “Novel phosphoryloxy-thiazoles” (priority 1974, dated 1977).
# Read-outs that look alike come from different tables or passages of the source.
# Tests used:
# Assay type in all cases: in vivo
# Drosophila melanogaster = experiment: Vapor activity against Drosophila melanogaster; settings: inhaled or nasal, read-out: percentage of mortality
# Experimental: a. Activity against Drosophila melanogaster
# This test measures the vapor activity of the compounds and the less than 48 hours old insects were placed in a Petri dish with a 10 cm diameter connected by a tergal screen to a crystallizer of the same diameter in which the test compound in acetone solution is placed. The said solution is evaporated after the insects have been placed and 3 tests with 25 insects were run for each concentration. The results are expressed in Table I as a percentage of mortality after 1, 2, 4 and 6 hours.
# Sitophilus granarius = experiment: Topical application test against Sitophilus granarius; settings: read-out: percent mortality
# Experimental: c. Test against Sitophilus granarius
# This topical application test comprised preparing the test compounds in acetone solution at concentrations of 5000, 500 and 50 mg of the active compound per liter and 0.2 μl of the solutions were applied to the ventral thorax of 50 Sitophilus granarius for each concentration.
# Musca domestica = experiment: Topical application activity against Musca domestica; settings: read-out: percent of mortality
# Experimental: d. Activity against Musca domestica
# This topical application test consisted of placing a microliter of an acetone solution of the test product on the dorsal thorax of Musca domestica after having been put to sleep with ether. The insects were held at 20° C and 50% relative humidity and were fed milk and water.
# Spodoptera littoralis = experiment: Ingestion test against Spodoptera littoralis caterpillars; settings: po, ingestion, read-out: percent of mortality
# Experimental: e. Activity against Spodoptera littoralis
# This test was effected with Spodoptera littoralis caterpillars 1 to 1.5 cm long and an average of 10 days old. In this ingestion test, 4 ml of an acetone solution of the test products was placed on lettuce rings with an 8 mm diameter which were placed in closed plastic dishes with a 5 cm diameter. 15 caterpillars were placed in each dish and were held at 20° C and 50% relative humidity and were fed when the insects had eaten the treated lettuce ring.
# Musca domestica larvae = experiment: Contact-ingestion test against Musca domestica larvae; settings: read-out: percent of mortality
# Experimental: g. Activity against Musca domestica larvae
# This contact-ingestion test consisted of placing 2 ml of an acetone solution of different concentrations of the test product on 1 g of bran placed in a watch glass and the solvent was evaporated. The treated bran was placed in a plastic dish and was admixed with 2 ml of milk. 20 3 to 4 day old larvae of Musca domestica were added to the bran and were held at 20° C and 30% relative humidity and 3 tests were conducted for each concentration.
# [1] = tested on: Ditylenchus Myceliophagus; experiment: Acaricide activity, Ditylenchus Myceliophagus; settings: 24 h, read-out: Percent of mortality after 24 hours
# Experimental: In an apparatus containing 10 ml of an aqueous solution of the test product, 0.5 ml of water containing about 2000 acariens of Ditylenchus Myceliophagus were added thereto and the percent of mortality was determined by a binocular magnifying glass after 24 hours.
# Panagrellus silusiae = experiment: Nematocidal activity against Panagrellus silusiae
# Experimental: b. Activity against Panagrellus silusiae
# 30 nematodes were placed on a watch glass and three tests were run for each concentration. The 3 watch glasses for each treatment were placed in a Petri dish with a 15 cm diameter containing a film of water in a manner to retard evaporation of the solution to wet the nematodes. The concentration of the product was 125 mg of MA/L and 1 ml of toxic solution was placed on each watch glass containing the nematodes in 0.5 ml of water.
smiles,measurement,setting,value
"CCCCOc1nc(OP(=S)(OC)OC)c(C#N)s1 [Compound B, 2-n-butoxy-4-dimethoxythiophosphoryloxy-5-cyano-thiazole]",mortality at 5 ppm,Drosophila melanogaster; 1 H,0%
same,mortality at 50 ppm,Drosophila melanogaster; 1 H,77%
same,mortality at 500 ppm,Drosophila melanogaster; 1 H,100%
same,mortality at 5 ppm,Drosophila melanogaster; 4 H,100%
same,mortality at 50 ppm,Drosophila melanogaster; 4 H,100%
same,mortality at 500 ppm,Drosophila melanogaster; 4 H,100%
same,mortality at 5 ppm,Drosophila melanogaster; 6 H,100%
same,mortality at 50 ppm,Drosophila melanogaster; 6 H,100%
same,mortality at 500 ppm,Drosophila melanogaster; 6 H,100%
same,mortality at 50 ppm,Sitophilus granarius; 4 H,0%
same,mortality at 500 ppm,Sitophilus granarius; 4 H,96%
same,mortality at 5000 ppm,Sitophilus granarius; 4 H,100%
same,mortality at 50 ppm,Sitophilus granarius; 24 H,0%
same,mortality at 500 ppm,Sitophilus granarius; 24 H,100%
same,mortality at 5000 ppm,Sitophilus granarius; 24 H,100%
same,mortality at 50 ppm,"Sitophilus granarius; 120 h, 5 Days",0%
same,mortality at 500 ppm,"Sitophilus granarius; 120 h, 5 Days",100%
same,mortality at 5000 ppm,"Sitophilus granarius; 120 h, 5 Days",100%
same,mortality at 500 ppm,Musca domestica; 1 H,96%
same,mortality at 2500 ppm,Musca domestica; 1 H,100%
same,mortality at 5000 ppm,Musca domestica; 1 H,100%
same,mortality at 500 ppm,Musca domestica; 24 H,100%
same,mortality at 2500 ppm,Musca domestica; 24 H,100%
same,mortality at 5000 ppm,Musca domestica; 24 H,100%
same,mortality at 125 ppm,Spodoptera littoralis; 1 H,0%
same,mortality at 250 ppm,Spodoptera littoralis; 1 H,0%
same,mortality at 500 ppm,Spodoptera littoralis; 1 H,0%
same,mortality at 125 ppm,Spodoptera littoralis; 24 H,50%
same,mortality at 250 ppm,Spodoptera littoralis; 24 H,100%
same,mortality at 500 ppm,Spodoptera littoralis; 24 H,100%
same,mortality at 125 ppm,Spodoptera littoralis; 48 H,90%
same,mortality at 250 ppm,Spodoptera littoralis; 48 H,100%
same,mortality at 500 ppm,Spodoptera littoralis; 48 H,100%
same,mortality at 500 ppm,Musca domestica larvae; 48 H,88%
same,mortality at 5000 ppm,Musca domestica larvae; 48 H,93%
same,mortality at 500 ppm,"Musca domestica larvae; 192 h, 8 Days",98%
same,mortality at 5000 ppm,"Musca domestica larvae; 192 h, 8 Days",98%
same,mortality at 1 µg/mL,[1]; 0.001 g/l,43.3%
same,mortality at 10 µg/mL,[1]; 0.010 g/l,95.9%
same,mortality at 100 µg/mL,[1]; 0.1 g/l,98.5%
same,mortality at 1 µg/mL,"Panagrellus silusiae; 0.001 g/l, 24 hours",89.3%
same,mortality at 10 µg/mL,"Panagrellus silusiae; 0.01 g/l, 24 hours",100%
same,mortality at 100 µg/mL,"Panagrellus silusiae; 24 h, read-out: % of mortality",100%
